Data published in US12384769B2, “Heteroaryl-substituted aminoalkyl azole compounds as pesticides” (Elanco Animal Health GmbH, priority 2019, dated 2025).

How the values were obtained:
Format in all cases: in vivo
Ctenocephalides felis = Ctenocephalides felis oral test (CTECFE); settings: 48 h, 100 ppm in cattle blood, after 2 days
Description: Ctenocephalides felis—Oral Test (CTECFE)
(§1) Solvent: dimethyl sulfoxide
To produce a suitable preparation of active compound, 10 mg of active compound are dissolved in 0.5 ml solvent, and the concentrate is diluted with cattle blood to the desired concentration.
Approximately 20 adult unfed cat fleas (Ctenocephalides felis) are placed in flea chambers. The blood chamber, sealed with parafilm on the bottom, are filled with cattle blood supplied with compound solution and placed on the gauze covered top of the flea chamber, so that the fleas are able to suck the blood. The blood chamber is heated to 37° C. whereas the flea chamber is kept at room temperature.
After 2 days mortality in % is determined. 100% means all the fleas have been killed; 0% means none of the fleas have been killed.

Diabrotica balteata = Diabrotica balteata spray test; settings: 168 h, wheat seeds, after 7 days, read-out: activity (efficacy, seedlings grown); for pest or weed control at 160 µg/disc, 500 g/ha: 500 g/ha (=160 μg/well)
Description: Diabrotica balteata—Spray Test
Solvent: 78.0 parts by weight of acetone • • 1.5 parts by weight of dimethylformamide
(§2) Emulsifier: alkylarylpolyglycol ether
(§3) To produce a suitable preparation of active compound, 1 part by weight of active compound is mixed with the stated amount of solvent, and the concentrate is diluted with water, containing an emulsifier concentration of 1000 ppm, to the desired concentration. Further test concentrations are prepared by dilution with emulsifier containing water.
Soaked wheat seeds (Triticum aestivum) are placed in a multiple well plate filled with agar and some water and are incubated for 1 day to germinate (5 seeds per well). The germinated wheat seeds are sprayed with a test solution containing the desired concentration of the active ingredient. Afterwards each unit is infected with 10-20 larvae of the banded cucumber beetle (Diabrotica balteata).
After 7 days efficacy in % is determined. 100% means all the seedlings have grown up like in the untreated, uninfected control; 0% means none of the seedlings have grown.

Spodoptera frugiperda = Spodoptera frugiperda spray test; settings: in Zea mays, 168 h, read-out: activity (mortality)
Description: Spodoptera frugiperda—Spray Test
Solvent: 78.0 parts by weight acetone • 1.5 parts by weight dimethylformamide
as §2
as §3, with “solvents” for “solvent,”, “and” for “and the concentrate”
Maize (Zea mays) leaf sections are sprayed with a preparation of the active ingredient of the desired concentration. Once dry, the leaf sections are infested with fall armyworm larvae (Spodoptera frugiperda).
After 7 days mortality in % is determined. 100% means all caterpillars have been killed and 0% means none of the caterpillars have been killed.

[1] = system: Rhipicephalus microplus (strain Parkhurst, resistant against synthetic pyrethroids); test: Rhipicephalus microplus in-vitro contact test, larval cattle tick (BOOPMI Contact); settings: 5 μg/cm^2 (=500 g/ha), after 48 hours, read-out: activity (efficacy, larvae dead or moribund)
Description: Rhipicephalus microplus—in-Vitro Contact Tests Larval Cattle Tick (Strain Parkhurst, Resistant Against Synthetic Pyrethroids) (BOOPMI Contact)
9 mg compound is solved in 1 ml acetone and diluted with acetone to the desired concentration. 250 μL of the test solution is filled in 25 ml glass test tubes and homogeneously distributed on the inner walls by rotation and tilting on a shaking device (2 h at 30 rpm). With a compound concentration of 900 ppm, an inner surface of 44.7 cm^2 and a homogeneous distribution, a dose of 5 μg/cm^2 is achieved.
After the solvent has evaporated, each test tube is filled with 20-50 cattle tick larvae (Rhipicephalus microplus), closed with a perforated lid and incubated in a horizontal position at 85% relative humidity and 27° C. in an incubator. After 48 hours efficacy is determined. The larvae are patted on the ground of the tubes and negative geotactic behaviour is recorded.
An efficacy of 100% means all larvae are dead or moribund; 0% means no larvae are dead or moribund.

Boophilus microplus = Boophilus microplus injection test (BOOPMI Injection); settings: Rhipicephalus microplus, 168 h, injection into adult engorged female ticks, egg deposition after 7 days, read-out: activity (efficacy, infertile eggs); for pest or weed control at 0.004 mg: 4 μg/animal; for pest or weed control at 0.02 mg: 20 μg/animal
Description: Boophilus microplus—Injection Test (BOOPMI Injection)
as §1
To produce a suitable preparation of active compound, 10 mg of active compound are dissolved in 0.5 mL solvent, and the concentrate is diluted with solvent to the desired concentration.
Five adult engorged female ticks (Boophilus microplus) are injected with 1 μL compound solution into the abdomen. The ticks are transferred into replica plates and incubated in a climate chamber.
After 7 days egg deposition of fertile eggs is monitored. Eggs where fertility is not visible are stored in a climate chamber till hatching after about 42 days. An efficacy of 100% means all eggs are infertile; 0% means all eggs are fertile.

SMILES | pest or weed control at 5 µg/cm2 [1] [%] | pest or weed control at 0.004 mg (Boophilus microplus) [%] | pest or weed control at 0.02 mg (Boophilus microplus) [%] | pest or weed control at 100 g/ha (Diabrotica balteata) [%] | other results
CC(Nc1nc2cc(C(F)(F)F)cc(Cl)c2o1)c1nc(C(F)(F)F)nn1-c1ncccn1 (racemic) [Example I-048, 7-Chlor-N-{(rac)-1-[1-(pyrimidin-2-yl)-3-(trifluormethyl)-1H-1,2,4-triazol-5-yl]ethyl}-5-(trifluormethyl)-1,3-benzoxazol-2-amin] | – | – | – | – | mortality at 100 ppm (Ctenocephalides felis): 100%
C[C@H](Nc1nc2cc(C(F)(F)F)ccc2o1)c1ncnn1-c1ncccn1 [Example I-003] | – | – | – | – | pest or weed control at 160 µg/disc, 500 g/ha (Diabrotica balteata): 80%
C[C@H](Nc1nc2cc(C(F)(F)F)cc(Cl)c2o1)c1ncnn1-c1ccc(Cl)cn1 [Example I-015] | 100 | 80 | 100 | – | mortality at 500 g/ha (Spodoptera frugiperda): 100%; pest or weed control at 160 µg/disc, 500 g/ha (Diabrotica balteata): 100%
C[C@H](Nc1nc2cc(C(F)(F)F)cc(Cl)c2o1)c1ncnn1-c1ccc(C#N)cn1 [Example I-018] | 80 | 100 | 100 | 100 | mortality at 100 g/ha (Spodoptera frugiperda): 100%; mortality at 500 g/ha (Spodoptera frugiperda): 100%; pest or weed control at 160 µg/disc, 500 g/ha (Diabrotica balteata): 100%
Cc1nc([C@H](C)Nc2nc3cc(C(F)(F)F)cc(Cl)c3o2)n(-c2ccc(C#N)cn2)n1 [Example I-020] | 100 | – | – | – | –
Cc1nc([C@H](C)Nc2nc3cc(C(F)(F)F)cc(C(F)(F)F)c3o2)n(-c2ccc(C#N)cn2)n1 [Example I-021] | 80 | 100 | 100 | 100 | pest or weed control at 160 µg/disc, 500 g/ha (Diabrotica balteata): 100%
C[C@H](Nc1nc2cc(C(F)(F)F)cc(Cl)c2o1)c1ncnn1-c1ccc(C(F)(F)F)cn1 [Example I-027] | 100 | 100 | 100 | – | mortality at 500 g/ha (Spodoptera frugiperda): 100%
Cc1nc([C@H](C)Nc2nc3cc(C(F)(F)F)cc(C(F)(F)F)c3o2)n(-c2ccc(C(F)(F)F)cn2)n1 [Example I-029] | 100 | – | – | – | –
C[C@H](Nc1nc2cc(C(F)(F)F)cc(C(F)(F)F)c2o1)c1ncnn1-c1ccc(C(F)(F)F)cn1 [Example I-030] | – | 80 | 100 | – | –
C[C@H](Nc1nc2cc(C(F)(F)F)cc(C(F)(F)F)c2o1)c1ncnn1-c1ccc(Cl)cn1 [Example I-032] | – | – | 100 | – | mortality at 500 g/ha (Spodoptera frugiperda): 100%
Cc1csc(-n2ncnc2[C@H](C)Nc2nc3cc(C(F)(F)F)cc(Cl)c3o2)n1 [Example I-038, 7-chloro-N-{(1S)-1-[1-(4-methyl-1,3-thiazol-2-yl)-1H-1,2,4-triazol-5-yl]ethyl}-5-(trifluoromethyl)-1,3-benzoxazol-2-amine] | – | 80 | – | – | –
COc1cnc(-n2ncnc2[C@H](C)Nc2nc3cc(C(F)(F)F)cc(Cl)c3o2)nc1 [Example I-043, 7-Chlor-N-{(1S)-1-[1-(5-methoxypyrimidin-2-yl)-1H-1,2,4-triazol-5-yl]ethyl}-5-(trifluormethyl)-1,3-benzoxazol-2-amin] | – | – | – | – | mortality at 100 g/ha (Spodoptera frugiperda): 100%
COc1ccnc(-n2ncnc2[C@H](C)Nc2nc3cc(C(F)(F)F)cc(Cl)c3o2)n1 [Example I-051, 7-Chlor-N-{(1S)-1-[1-(4-methoxypyrimidin-2-yl)-1H-1,2,4-triazol-5-yl]ethyl}-5-(trifluormethyl)-1,3-benzoxaozl-2-amin] | 80 | – | 100 | – | –
C[C@H](Nc1nc2cc(C(F)(F)F)cc(Br)c2o1)c1ncnn1-c1ccc(Cl)cn1 [Example I-054, 7-Brom-N-{(1S)-1-[1-(5-chlorpyridin-2-yl)-1H-1,2,4-triazol-5-yl]ethyl}-5-(trifluormethyl)-1,3-benzoxazol-2-amin] | 100 | – | 100 | – | mortality at 500 g/ha (Spodoptera frugiperda): 100%
CC(C)c1cc(Cl)c2oc(N[C@@H](C)c3ncnn3-c3ncccn3)nc2c1 [Example I-063, 7-Chlor-5-isopropyl-N-{(1S)-1-[1-(pyrimidin-2-yl)-1H-1,2,4-triazol-5-yl]ethyl}-1,3-benzoxazol-2-amin] | – | 80 | 100 | 100 | pest or weed control at 160 µg/disc, 500 g/ha (Diabrotica balteata): 80%
CC(C)c1cc(Cl)c2oc(N[C@@H](C)c3ncnn3-c3cc(C#N)ccn3)nc2c1 [Example I-064, 2-(5-{(1S)-1-[(7-Chlor-5-isopropyl-1,3-benzoxazol-2-yl)amino]ethyl}-1H-1,2,4-triazol-1-yl)isonicotinonitril] | – | – | 80 | 100 | pest or weed control at 160 µg/disc, 500 g/ha (Diabrotica balteata): 100%
CC(C)c1cc(Cl)c2oc(N[C@@H](C)c3ncnn3-c3ncc(Br)cn3)nc2c1 [Example I-068, N-{(1S)-1-[1-(5-Brompyrimidin-2-yl)-1H-1,2,4-triazol-5-yl]ethyl}-7-chlor-5-isopropyl-1,3-benzoxazol-2-amin] | 80 | 100 | 100 | – | –
C[C@H](Nc1nc2cc(C(C)(C)C)cc(Cl)c2o1)c1ncnn1-c1ccc(C#N)cn1 [Example I-077, 6-(5-[(1S)-1-[(5-tert-Butyl-7-chlor-1,3-benzoxazol-2-yl)amino]ethyl}-1H-1,2,4-triazol-1-yl)nicotinonitril] | – | 100 | 100 | – | –
C[C@H](Nc1nc2cc(S(=O)(=O)c3ccccc3)cc(Cl)c2o1)c1ncnn1-c1ncccn1 [Example I-080, 7-Chlor-5-(phenylsulfonyl)-N-{(1S)-1-[1-(pyrimidin-2-yl)-1H-1,2,4-triazol-5-yl]ethyl}-1,3-benzoxazol-2-amin] | 100 | – | – | – | –
Cc1nc([C@H](C)Nc2nc3cc(Cl)cc(C(F)(F)F)c3o2)n(-c2ncccn2)n1 [Example I-089, 5-Chlor-N-{(1S)-1-[3-methyl-1-(pyrimidin-2-yl)-1H-1,2,4-triazol-5-yl]ethyl}-7-(trifluormethyl)-1,3-benzoxazol-2-amin] | – | 100 | 100 | – | –
COc1nc([C@H](C)Nc2nc3cc(C(F)(F)F)c(Cl)cc3o2)n(-c2ccc(C#N)cn2)n1 [Example I-101, 6-{5-[(1S)-1-{[6-chloro-5-(trifluoromethyl)-1,3-benzoxazol-2-yl]amino}ethyl]-3-methoxy-1H-1,2,4-triazol-1-yl}pyridine-3-carbonitrile] | – | – | – | 100 | –
CCN(CC)C(=O)c1ccc(-n2ncnc2[C@H](C)Nc2nc3cc(C(F)(F)F)c(Cl)cc3o2)nc1 [Example I-102, 6-{5-[(1S)-1-{[6-chloro-5-(trifluoromethyl)-1,3-benzoxazol-2-yl]amino}ethyl]-1H-1,2,4-triazol-1-yl}-N,N-diethylpyridine-3-carboxamide] | – | – | – | 100 | mortality at 100 g/ha (Spodoptera frugiperda): 100%
C[C@H](Nc1nc2cc(C(F)(F)F)c(Cl)cc2o1)c1ncnn1-c1ccc(C(=O)N2CCCC2)cn1 [Example I-103, (6-{5-[(1S)-1-{[6-chloro-5-(trifluroomethyl)-1,3-benzoxazol-2-yl]amino}ethyl]-1H-1,2,4-triazol-1-yl}pyridin-3-yl)(pyrrolidin-1-yl)methanone] | – | – | – | 100 | –
